Results from PubChem BioAssay AID256 (DTP/NCI, 2004).
Values joined by “and” are separate entries in the source; they are usually repeats but may differ in a detail not shown here. Identical values can stand only once. Inconclusive results and toxic doses are left out.

Tested on: CD2F1 mice, L1210 leukemia ip, survival T/C
Test: NCI In Vivo Anticancer Drug Screen. Data for tumor model L1210 Leukemia (intraperitoneal) in CD2F1 (CDF1) mice
Settings: higher = longer survival
How it was run: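 Ratio T/C, where T is the treated-group value and C the vehicle-dosed control value, from mice implanted with a transplantable tumor.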

[1] = endpoint: mean survival time, dose: 100.0 mg/kg/injection, schedule: Q01DX001 (ip), vehicle: saline
[2] = endpoint: mean survival time, dose: 200.0 mg/kg/injection, schedule: Q01DX001 (ip), vehicle: saline
[3] = endpoint: mean survival time, dose: 400.0 mg/kg/injection, schedule: Q01DX001 (ip), vehicle: saline
[4] = endpoint: mean survival time, dose: 100.0 mg/kg/injection, schedule: Q01DX009 (ip), vehicle: saline with Tween-80
[5] = endpoint: mean survival time, dose: 200.0 mg/kg/injection, schedule: Q01DX009 (ip), vehicle: saline with Tween-80
[6] = endpoint: mean survival time, dose: 400.0 mg/kg/injection, schedule: Q01DX009 (ip), vehicle: saline with Tween-80
[7] = endpoint: mean survival time, dose: 12.5 mg/kg/injection, schedule: Q01DX005 (ip), vehicle: water
[8] = endpoint: mean survival time, dose: 25.0 mg/kg/injection, schedule: Q01DX005 (ip), vehicle: water
[9] = endpoint: mean survival time, dose: 50.0 mg/kg/injection, schedule: Q01DX005 (ip), vehicle: water
[10] = endpoint: mean survival time, dose: 100.0 mg/kg/injection, schedule: Q01DX005 (ip), vehicle: water
[11] = endpoint: mean survival time, dose: 100.0 mg/kg/injection, schedule: Q04DX003 (ip), vehicle: saline with Tween-80
[12] = endpoint: mean survival time, dose: 200.0 mg/kg/injection, schedule: Q04DX003 (ip), vehicle: saline with Tween-80
[13] = endpoint: mean survival time, dose: 400.0 mg/kg/injection, schedule: Q04DX003 (ip), vehicle: saline with Tween-80
[14] = endpoint: mean survival time, dose: 25.0 mg/kg/injection, schedule: Q01DX009 (ip), vehicle: saline with Tween-80
[15] = endpoint: mean survival time, dose: 50.0 mg/kg/injection, schedule: Q01DX009 (ip), vehicle: saline with Tween-80
[16] = endpoint: mean survival time, dose: 6.25 mg/kg/injection, schedule: Q01DX005 (ip), vehicle: water
[17] = endpoint: mean survival time, dose: 100.0 mg/kg/injection, schedule: Q01DX001 (ip), vehicle: saline with Tween-80
[18] = endpoint: mean survival time, dose: 200.0 mg/kg/injection, schedule: Q01DX001 (ip), vehicle: saline with Tween-80
[19] = endpoint: mean survival time, dose: 400.0 mg/kg/injection, schedule: Q01DX001 (ip), vehicle: saline with Tween-80
[20] = endpoint: mean survival time, dose: 100.0 mg/kg/injection, schedule: Q04DX002 (ip), vehicle: saline with Tween-80
[21] = endpoint: mean survival time, dose: 200.0 mg/kg/injection, schedule: Q04DX002 (ip), vehicle: saline with Tween-80
[22] = endpoint: mean survival time, dose: 400.0 mg/kg/injection, schedule: Q04DX002 (ip), vehicle: saline with Tween-80

CN(C)B(B(N(C)C)N(C)C)N(C)C
T/C [1]: 105 % of control | T/C [2]: 97 % of control | T/C [3]: 101 % of control

CC(C)CN(CC(C)C)c1ccc([N+](=O)[O-])cc1[N+](=O)[O-]
T/C [4]: 97 % of control | T/C [5]: 95 % of control | T/C [6]: 94 % of control

NC(=O)c1ncn(C2OCC(O)C(O)C2O)c1N (stereo not drawn)
T/C [7]: 87 % of control and 95 % of control | T/C [8]: 90 % of control and 93 % of control | T/C [9]: 92 % of control | T/C [10]: 98 % of control | T/C (endpoint: mean survival time, dose: 200.0 mg/kg/injection, schedule: Q01DX005 (ip), vehicle: water): 98 % of control and 95 % of control | T/C (endpoint: median survival time, dose: 12.5 mg/kg/injection, schedule: Q01DX005 (ip), vehicle: water): 96 % of control | T/C (endpoint: median survival time, dose: 25.0 mg/kg/injection, schedule: Q01DX005 (ip), vehicle: water): 106 % of control | T/C (endpoint: median survival time, dose: 50.0 mg/kg/injection, schedule: Q01DX005 (ip), vehicle: water): 102 % of control | T/C (endpoint: median survival time, dose: 100.0 mg/kg/injection, schedule: Q01DX005 (ip), vehicle: water): 98 % of control | T/C (endpoint: median survival time, dose: 200.0 mg/kg/injection, schedule: Q01DX005 (ip), vehicle: water): 108 % of control

COC1(OC)C(Cl)=C(Cl)C2C1C1(Cl)C(Cl)=C(Cl)C2(Cl)C1(OC)OC (stereo not drawn)
T/C [1]: 106 % of control | T/C (endpoint: mean survival time, dose: 100.0 mg/kg/injection, schedule: Q04DX003 (ip), vehicle: saline): 105 % of control | T/C [2]: 106 % of control | T/C (endpoint: mean survival time, dose: 200.0 mg/kg/injection, schedule: Q04DX003 (ip), vehicle: saline): 103 % of control | T/C [3]: 102 % of control | T/C (endpoint: mean survival time, dose: 400.0 mg/kg/injection, schedule: Q04DX003 (ip), vehicle: saline): 100 % of control

CN1C=CC(C(C(N)=O)c2ccccc2)c2ccccc21 (stereo not drawn)
T/C [11]: 96 % of control | T/C [12]: 102 % of control | T/C [13]: 97 % of control

[Cl][Pt+2][Cl].[NH-]C1CCC1.[NH2-]
T/C (endpoint: mean survival time, dose: 0.39 mg/kg/injection, schedule: Q04DX003 (ip), vehicle: saline): 98 % of control | T/C (endpoint: mean survival time, dose: 0.78 mg/kg/injection, schedule: Q04DX003 (ip), vehicle: saline): 100 % of control | T/C (endpoint: mean survival time, dose: 1.56 mg/kg/injection, schedule: Q04DX003 (ip), vehicle: saline): 120 % of control | T/C (endpoint: mean survival time, dose: 3.12 mg/kg/injection, schedule: Q04DX003 (ip), vehicle: distilled water + Tween-80): 110 % of control | T/C (endpoint: mean survival time, dose: 3.12 mg/kg/injection, schedule: Q04DX003 (ip), vehicle: water): 200 % of control | T/C (endpoint: mean survival time, dose: 6.25 mg/kg/injection, schedule: Q04DX003 (ip), vehicle: distilled water + Tween-80): 86 % of control | T/C (endpoint: mean survival time, dose: 6.25 mg/kg/injection, schedule: Q04DX003 (ip), vehicle: saline): 168 % of control | T/C (endpoint: mean survival time, dose: 6.25 mg/kg/injection, schedule: Q04DX003 (ip), vehicle: water): 111 % of control | T/C (endpoint: median survival time, dose: 0.38 mg/kg/injection, schedule: Q01DX009 (ip), vehicle: saline): 122 % of control | T/C (endpoint: median survival time, dose: 1.5 mg/kg/injection, schedule: Q01DX009 (ip), vehicle: saline): 156 % of control and 172 % of control | T/C (endpoint: median survival time, dose: 3.0 mg/kg/injection, schedule: Q01DX009 (ip), vehicle: saline): 184 % of control and 213 % of control | T/C (endpoint: median survival time, dose: 3.0 mg/kg/injection, schedule: Q01DX009 (ip), vehicle: suspension in saline): 314 % of control | T/C (endpoint: median survival time, dose: 6.0 mg/kg/injection, schedule: Q01DX009 (ip), vehicle: saline): 116 % of control and 123 % of control | T/C (endpoint: median survival time, dose: 12.0 mg/kg/injection, schedule: Q01DX009 (ip), vehicle: suspension in saline): 111 % of control

CCCN(CCC)CCC(=O)OCC
T/C [4]: 97 % of control | T/C [11]: 97 % of control | T/C [5]: 97 % of control | T/C [12]: 114 % of control | T/C [6]: 100 % of control | T/C [13]: 100 % of control

CCCCCCCCCCCCN1CCCC(O)C1 (stereo not drawn)
T/C [14]: 116 % of control | T/C [15]: 92 % of control and 105 % of control | T/C [4]: 105 % of control and 111 % of control

O=[N+]([O-])c1ccc2c(c1)C(=Nc1ccc3ccccc3c1)c1ccccc1-2
T/C [11]: 98 % of control | T/C [12]: 86 % of control

Nc1cccc[n+]1CC(O)C(=O)[O-] (stereo not drawn)
T/C (endpoint: mean survival time, dose: 50.0 mg/kg/injection, schedule: Q01DX001 (ip), vehicle: saline): 107 % of control | T/C [1]: 98 % of control | T/C [2]: 101 % of control

Cc1cccc(C)c1NC(=O)c1ccccc1Cl
T/C [11]: 98 % of control | T/C [12]: 97 % of control | T/C [13]: 89 % of control

CCCCCC(=O)SCC(=O)OCC(=O)[C@]1(O)Cc2c(O)c3c(c(O)c2[C@@H](OC2CC(N)C(O)C(C)O2)C1)C(=O)c1c(OC)cccc1C3=O (stereo partly drawn)
T/C (endpoint: mean survival time, dose: 0.39 mg/kg/injection, schedule: Q01DX005 (ip), vehicle: water): 115 % of control and 110 % of control | T/C (endpoint: mean survival time, dose: 0.78 mg/kg/injection, schedule: Q01DX005 (ip), vehicle: water): 116 % of control and 124 % of control | T/C (endpoint: mean survival time, dose: 1.56 mg/kg/injection, schedule: Q01DX005 (ip), vehicle: water): 118 % of control | T/C [16]: 104 % of control

Nc1ccccc1CCCC(N)C(=O)O (stereo not drawn)
T/C [17]: 97 % of control | T/C [18]: 100 % of control | T/C [19]: 93 % of control

OCC1OC(n2cnc3c4ccccc4ccc32)C(O)C1O (stereo not drawn)
T/C (endpoint: median survival time, dose: 10.0 mg/kg/injection, schedule: Q01DX005 (ip), vehicle: saline with Tween-80): 110 % of control | T/C (endpoint: median survival time, dose: 16.25 mg/kg/injection, schedule: Q01DX005 (ip), vehicle: saline with Tween-80): 98 % of control | T/C (endpoint: median survival time, dose: 20.0 mg/kg/injection, schedule: Q01DX005 (ip), vehicle: saline with Tween-80): 103 % of control | T/C (endpoint: median survival time, dose: 32.5 mg/kg/injection, schedule: Q01DX005 (ip), vehicle: saline with Tween-80): 100 % of control | T/C (endpoint: median survival time, dose: 40.0 mg/kg/injection, schedule: Q01DX005 (ip), vehicle: saline with Tween-80): 97 % of control | T/C (endpoint: median survival time, dose: 65.0 mg/kg/injection, schedule: Q01DX005 (ip), vehicle: saline with Tween-80): 107 % of control | T/C (endpoint: median survival time, dose: 80.0 mg/kg/injection, schedule: Q01DX005 (ip), vehicle: saline with Tween-80): 103 % of control | T/C (endpoint: median survival time, dose: 130.0 mg/kg/injection, schedule: Q01DX005 (ip), vehicle: saline with Tween-80): 97 % of control

Cc1ccccc1C1CCC(=O)OC1=O (stereo not drawn)
T/C [17]: 97 % of control | T/C [20]: 100 % of control | T/C [18]: 95 % of control | T/C [21]: 103 % of control | T/C [19]: 94 % of control | T/C [22]: 100 % of control

Nc1ncnc2c1c1c(=O)[nH]nnc1n2C1OC(CO)C(O)C1O (stereo not drawn)
T/C (endpoint: mean survival time, dose: 3.13 mg/kg/injection, schedule: Q01DX005 (ip), vehicle: water): 101 % of control | T/C [16]: 103 % of control | T/C [7]: 92 % of control | T/C (endpoint: mean survival time, dose: 12.5 mg/kg/injection, schedule: Q01DX009 (ip), vehicle: distilled water + Tween-80): 113 % of control | T/C [8]: 107 % of control | T/C (endpoint: mean survival time, dose: 25.0 mg/kg/injection, schedule: Q01DX009 (ip), vehicle: distilled water + Tween-80): 122 % of control | T/C [9]: 105 % of control | T/C (endpoint: mean survival time, dose: 50.0 mg/kg/injection, schedule: Q01DX009 (ip), vehicle: distilled water + Tween-80): 122 % of control | T/C [10]: 107 % of control

COC1OC(CO)C(O)C(O)C1O (stereo not drawn) (tested in a mixture with another compound)
T/C [17]: 90 % of control | T/C [18]: 90 % of control | T/C [19]: 92 % of control

COc1ccc(NC(=O)Oc2c(Cl)cc(Cl)c3ccccc23)cc1
T/C [20]: 93 % of control | T/C [21]: 93 % of control | T/C [22]: 101 % of control

O=c1c(Br)cocc1Br
T/C (endpoint: mean survival time, dose: 100.0 mg/kg/injection, schedule: Q04DX003 (ip), vehicle: saline sonified): 104 % of control | T/C (endpoint: mean survival time, dose: 200.0 mg/kg/injection, schedule: Q04DX003 (ip), vehicle: saline sonified): 102 % of control | T/C (endpoint: mean survival time, dose: 400.0 mg/kg/injection, schedule: Q04DX003 (ip), vehicle: saline sonified): 102 % of control

Clc1ccccc1P(c1ccccc1)c1ccccc1
T/C (endpoint: mean survival time, dose: 25.0 mg/kg/injection, schedule: Q04DX002 (ip), vehicle: saline with Tween-80): 100 % of control | T/C (endpoint: mean survival time, dose: 50.0 mg/kg/injection, schedule: Q04DX002 (ip), vehicle: saline with Tween-80): 100 % of control | T/C [20]: 100 % of control

CC1(C)C2CC=C(CCOC(=S)S)C1C2.[Ni] (stereo not drawn)
T/C [14]: 96 % of control | T/C [15]: 90 % of control | T/C [4]: 96 % of control | T/C [11]: 91 % of control | T/C [12]: 93 % of control
